We go through four molecules from patent publication US6162925A, “Antibiotic for methicillin resistant bacteria” (Research Corporation Tech., Inc., priority 1999, dated 2000).

Data set [1] has as its system Enterococcus faecium ATCC 35667. The data set can be described thus: MIC, broth microdilution (NCCLS), E. faecium ATCC 35667. The data set is classed as cell-based. The conditions noted are these: read-out: Minimal Inhibitory Concentration (MIC). The procedure:
(§1) Test compounds were assayed against Staphylococcus aureus FDA 209P by the 10 fold agar disc diffusion assay on BHI-plates at pH=7 and pH=9 in accordance with the procedure from the National Committee for Clinical Laboratory Standards 1989. Susceptibility testing. A panel of 16 bacteria was used to evaluate the antimicrobial activity of the compounds (Table 2). The MIC of each antimicrobial agent was determined using a microdilution method according to NCCLS standards^1. Serial twofold dilutions of antibiotics were prepared in Mueller-Hinton broth (Difco Laboratories, Detroit, Mich.). Bacteria were grown to early log phase at 35° C. (1 hours) in Mueller-Hinton broth and cultures were diluted to achieve a final inoculum of 5×10^5 CFU per ml. Microtiter plates were incubated at 35° C. for 20 h and then were read using a Thermomax microplate reader (Molecular Devices, Sunnyvale, Calif.) and a microtiter plate reading mirror. The MIC was defined as the lowest concentration of antibiotic which inhibited the development of visible growth at the end of the incubation period. The standard reference strains were Staphyloccocus aureus ATCC […], Enterococcus faecalis ATCC 29212, E. faecium ATCC 35667, Escherichia coli ATCC 25922, and Pseudomonas aeruginosa ATCC 27853. Imipenem and vancomycin were used as antibiotic controls and values for reference strains were in accordance with the NCCLS.
(§2) Enterococcus ATCC Reference strain
(Dilution methods test growth across graded concentrations, often in twofold steps.)

The subject of data set [2] is Staphylococcus haemolyticus UA281. The data set can be described thus: MIC, broth microdilution (NCCLS), S. haemolyticus UA281. The data set is classed as cell-based. The conditions noted are these: read-out: Minimal Inhibitory Concentration (MIC). The method, then:
as §1
(§3) Staphylococcus Methicillin
haemolyticus UA281 resistant

Data set [3] concerns Enterococcus faecalis ATCC 29212. The data set can be described thus: MIC, broth microdilution (NCCLS), E. faecalis ATCC 29212. The data set is classed as cell-based. The conditions noted are these: read-out: Minimal Inhibitory Concentration (MIC). The procedure: as §1, §2
The subject of data set [4] is Staphylococcus aureus COL. The data set can be described thus: MIC, broth microdilution (NCCLS), S. aureus COL. The conditions noted are these: 20 h, read-out: Minimal Inhibitory Concentration (MIC). The data set is classed as cell-based. The procedure: as §1, §3
aureus COL resistant, β-

The test system of data set [5] is Staphylococcus aureus PC1. As to the kind of experiment: MIC, broth microdilution (NCCLS), S. aureus PC1. As to conditions: read-out: Minimal Inhibitory Concentration (MIC). The data set is classed as cell-based. The procedure:
as §1
Staphylococcus Type A βlactamase
aureus PC1 hyperproducer

The subject of data set [6] is Staphylococcus aureus sa201. The data set can be described thus: MIC, broth microdilution (NCCLS), S. aureus sa201. The data set is classed as cell-based. The conditions noted are these: read-out: Minimal Inhibitory Concentration (MIC). The method, then: as §1
Staphylococcus Clinical isolate,
aureus sa201 Spain resistant, β-

Data set [7] concerns Enterococcus faecium BM4147. As to the kind of experiment: MIC, broth microdilution (NCCLS), E. faecium BM4147. It is filed as cell-based. As to conditions: read-out: Minimal Inhibitory Concentration (MIC). The method, then:
as §1
(§4) Enterococcus Vancomycin
faecium BM4147 resistant, vanA

The test system of data set [8] is Staphylococcus aureus ATCC 33593. As to the kind of experiment: MIC, broth microdilution (NCCLS), S. aureus ATCC 33593. It is filed as cell-based. The conditions noted are these: read-out: Minimal Inhibitory Concentration (MIC). The method, then: as §1
Staphylococcus ATCC Methicillin
aureus ATCC 33593 resistant, β-

The subject of data set [9] is Enterococcus faecium efm040. As to the kind of experiment: MIC, broth microdilution (NCCLS), E. faecium efm040. The data set is classed as cell-based. The conditions noted are these: read-out: Minimal Inhibitory Concentration (MIC). The method, then: as §1
Enterococcus Clinical isolate,
faecium efm040 U.S.A. resistant

In data set [10] the test system is Staphylococcus aureus ATCC 29213. The data set can be described thus: MIC, broth microdilution (NCCLS), S. aureus ATCC 29213. As to conditions: read-out: Minimal Inhibitory Concentration (MIC). It is filed as cell-based. The method, then:
as §1
Staphylococcus ATCC Reference strain

In the next data set the test system is Staphylococcus aureus 76. As to the kind of experiment: MIC, broth microdilution (NCCLS), S. aureus 76. It is filed as cell-based. As to conditions: read-out: Minimal Inhibitory Concentration (MIC). The method, then: as §1, §3
Data set [11] deals with Staphylococcus aureus sa ATCC 13709. As to the kind of experiment: MIC, broth microdilution (NCCLS), S. aureus sa ATCC 13709. It is filed as cell-based. As to conditions: read-out: Minimal Inhibitory Concentration (MIC). The procedure:
as §1

Data set [12] has as its system Pseudomonas Aeruginosa ATCC 27853. As to the kind of experiment: MIC, broth microdilution (NCCLS), P. aeruginosa ATCC 27853. The conditions noted are these: read-out: Minimal Inhibitory Concentration (MIC). The data set is classed as cell-based. The method, then: as §1
Data set [13] relates to Escherichia coli ATCC 25922. The data set can be described thus: MIC, broth microdilution (NCCLS), E. coli ATCC 25922. The data set is classed as cell-based. The conditions noted are these: read-out: Minimal Inhibitory Concentration (MIC). The method, then:
as §1

The subject of data set [14] is Staphylococcus aureus COL8A. As to the kind of experiment: MIC, broth microdilution (NCCLS), S. aureus COL8A. As to conditions: 20 h, read-out: Minimal Inhibitory Concentration (MIC). The data set is classed as cell-based. The method, then: as §1, §3
aureus COL8A susceptible, […]

The subject of data set [15] is Enterococcus faecalis V583. As to the kind of experiment: MIC, broth microdilution (NCCLS), E. faecalis V583. It is filed as cell-based. As to conditions: read-out: Minimal Inhibitory Concentration (MIC). The procedure: as §1, §4
faecalis V583 resistant, vanB

The conditions of data set [16]: cited from earlier work.
The mark [17] stands for this setting: ATCC35667, E. faecium ATCC 35667, reference strain, 35° C., 20 h.
Where [18] appears, read: S. haemolyticus UA281, methicillin resistant, 35° C., 20 h.
Where [19] appears, read: ATCC29212, E. faecalis ATCC 29212, reference strain, 35° C., 20 h.
The mark [20] stands for this setting: S. aureus COL, methicillin resistant, β-lactamase negative, 35° C.
The mark [21] stands for this setting: S. aureus PC1, Type A βlactamase hyperproducer, 35° C., 20 h.
Where [22] appears, read: S. aureus sa201, clinical isolate Spain, methicillin resistant, β-lactamase positive, 35° C., 20 h.
Where [23] appears, read: E. faecium BM4147, vancomycin resistant, vanA, 35° C., 20 h.
The mark [24] stands for this setting: ATCC33593, S. aureus ATCC 33593, methicillin resistant, β-lactamase positive, 35° C., 20 h.
Setting [25] is: E. faecium efm040, clinical isolate U.S.A., ampicillin resistant, 35° C., 20 h.
The mark [26] stands for this setting: ATCC29213, S. aureus ATCC 29213, reference strain, 35° C., 20 h.
The mark [27] stands for this setting: Staphylococcus aureus, S. aureus 76, methicillin resistant, β-lactamase positive, 35° C., 20 h.
Setting [28] is: ATCC13709, S. aureus sa ATCC 13709, Smith strain, 35° C., 20 h.
Where [29] appears, read: ATCC27853, P. aeruginosa ATCC 27853, reference strain, 35° C., 20 h.
The mark [30] stands for this setting: ATCC25922, E. coli ATCC 25922, reference strain, 35° C., 20 h.

Converted amounts (≈) assume the structure as drawn. Read-outs that look alike come from different tables or passages of the source. Where only a bound is given, the exact number is not on record here.

As to `CC(=O)NC1=NC(=O)C(N(C)C(=O)C[C@@H](N)CCCNC(=N)N)CN1` (stereo partly drawn) [Compound 73a, 3S,5'S/R-3-amino-6-[(aminoiminomethyl)amino]-N-(2-acetylamino-1,4,5,6-tetrahydro-4-oxo-5-pyrimidinyl)-N-methyl-hexanamide], the MIC was found to be 64 µg/mL (≈ 181 µM) in data set [1] (setting [17]); 128 µg/mL (≈ 361 µM) in [2] (setting [18]); 32 µg/mL (≈ 90.3 µM) in data set [3] (setting [19]); 16 µg/mL (≈ 45.1 µM) in data set [4] (setting [20]); 8 µg/mL (≈ 22.6 µM) in [5] (setting [21]); 16 µg/mL (≈ 45.1 µM) in [6] (setting [22]). The MIC is 128 µg/mL (≈ 361 µM) in data set [7] (setting [23]); 8 µg/mL (≈ 22.6 µM) in data set [8] (setting [24]); 256 µg/mL (≈ 722 µM) in data set [9] (setting [25]); 16 µg/mL (≈ 45.1 µM) in data set [10] (setting [26]); 16 µg/mL (≈ 45.1 µM) in the data set on Staphylococcus aureus 76 (setting [27]); 16 µg/mL (≈ 45.1 µM) in data set [11] (setting [28]). Besides, the MIC amounted to 256 µg/mL (≈ 722 µM) in data set [12] (setting [29]), 128 µg/mL (≈ 361 µM) in [13] (setting [30]) and 16 µg/mL (≈ 45.1 µM) in [14].

Consider `C[C@@H](O)[C@H]1C(=O)N2C(C(=O)O)=C(SCCN=CN)C[C@H]12` [Imipenem], for which the MIC in [1] (setting [17]) was 4 µg/mL (≈ 13.4 µM); in [2] (setting [18]), 64 µg/mL (≈ 214 µM); in data set [3] (setting [19]), 0.5 µg/mL (≈ 1.67 µM); in data set [4] (setting [20]), 32 µg/mL (≈ 107 µM); in data set [5] (setting [21]), not above 0.25 µg/mL; in data set [6] (setting [22]), 64 µg/mL (≈ 214 µM). Moreover, the MIC in [7] (setting [23]) was 8 µg/mL (≈ 26.7 µM); in data set [8] (setting [24]) it was 8 µg/mL (≈ 26.7 µM); in data set [15] (E. faecalis V583, vancomycin resistant, vanB, 35° C., 20 h), 0.5 µg/mL (≈ 1.67 µM); in [9] (setting [25]), more than 128 µg/mL; in [10] (setting [26]), not above 0.25 µg/mL; with Staphylococcus aureus 76 (setting [27]), 8 µg/mL (≈ 26.7 µM). For the same molecule, the MIC was not above 0.25 µg/mL in [11] (setting [28]), 1 µg/mL (≈ 3.34 µM) in data set [12] (setting [29]), not above 0.25 µg/mL in data set [13] (setting [30]) and not above 0.25 µg/mL in [14].

Consider `CN[C@H](CC(C)C)C(=O)N[C@H]1C(=O)N[C@@H](CC(N)=O)C(=O)N[C@H]2C(=O)N[C@H]3C(=O)N[C@H](C(=O)N[C@H](C(=O)O)c4cc(O)cc(O)c4-c4cc3ccc4O)[C@H](O)c3ccc(c(Cl)c3)Oc3cc2cc(c3O[C@@H]2O[C@H](CO)[C@@H](O)[C@H](O)[C@H]2O[C@H]2C[C@](C)(N)[C@H](O)[C@H](C)O2)Oc2ccc(cc2Cl)[C@H]1O` [Vancomycin, vancomycin], for which the MIC in data set [1] (ATCC35667, 20 h) is not above 0.25 µg/mL; in data set [2] (UA281, 20 h), 1 µg/mL (≈ 0.69 µM); in [3] (ATCC29212, 20 h) it was 1 µg/mL (≈ 0.69 µM); in [4], 1 µg/mL (≈ 0.69 µM); in [5] (PC1, 20 h), not above 0.25 µg/mL; in data set [6] (SA201, 20 h), 0.5 µg/mL (≈ 0.345 µM). For the same molecule, the MIC in data set [7] (BM4147, 20 h) is more than 128 µg/mL; in [8] (ATCC33593, 20 h), 0.5 µg/mL (≈ 0.345 µM); in data set [15] (V583, 20 h) it was 16 µg/mL (≈ 11 µM); in data set [9] (EFM040, 20 h) it was not above 0.25 µg/mL; in [10] (ATCC29213, 20 h) it was not above 0.25 µg/mL; in the data set on Staphylococcus aureus 76 (Staphylococcus aureus, 76, 20 h), not above 0.25 µg/mL. In addition, the MIC is not above 0.25 µg/mL in [11] (ATCC13709, 20 h); more than 128 µg/mL in data set [12] (ATCC27853, 20 h); more than 128 µg/mL in data set [13] (ATCC25922, 20 h); not above 0.25 µg/mL in [14].

On to `CN1C(=O)C[C@H](CCCNC(=N)N)NC(=O)[C@H]1CNC(=N)NC(N)=O` [TAN-1057C], for which the “conversion upon standing in water” value in data set [16] is “rapidly convert to a mixture of TAN-1057A/B upon standing in water”.
